Source: patent US11725000B2, “Apoptosis inhibitors” (National Institute of Biological Sciences, Beijing, priority 2017, dated 2023)

system: U2OS_Bim cells; assay: Apoptosis inhibition assay (Bim-induced apoptosis, cell viability by ATP level); format: cell-based; details: U2OS_Bim cells, DOX-induced Bim overexpression, viability 24 h after DOX; read-out: EC50
How it was run: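 Apoptosis was triggered by doxycycline (0.1 μg/mL) induction of Bim, one hour after compound addition to U2OS_Bim cells. Survival was measured after 24 h from cellular ATP (CellTiter-Glo), relative to DMSO, with zVAD at 20 μM as rescue control. Data are duplicate means, some estimated from preliminary results.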

| SMILES | EC50 |
| --- | --- |
| COc1ccc(Cn2cc(-c3cc(C(F)(F)F)nc(S(=O)(=O)CCCC(=O)NC45CC6CC(CC(C6)C4)C5)n3)ccc2=O)cc1OC [Compound 289] | 0.42 nM |

same assay, conditions: U2OS_Bim cells; estimated (*Est.) / preliminary results; numbering of Tables 4a/4b; read-out: EC50

| SMILES | EC50 |
| --- | --- |
| Cc1cc(-c2cc(F)c(=O)n(Cc3ccc4c(c3)OCO4)c2)nc(S(=O)(=O)CCC(OCc2ccccc2F)c2cccs2)n1 (stereo not shown) [Compound 389] | 1 to 1000 nM |
| Cc1cc(-c2cc(F)c(=O)n(Cc3ccc4c(c3)CC(=O)N4)c2)nc(S(=O)(=O)CCC(OCc2ccccc2F)c2ccccc2)n1 (stereo not shown) [Compound 350] | 1 to 1000 nM |
| Cc1cc(-c2cc(F)c(=O)n(Cc3ccc4c(c3)OCO4)c2)nc(S(=O)(=O)CCC(OCC(C)(C)C)c2ccccc2)n1 (stereo not shown) [Compound 421] | 1 to 1000 nM |
| Cc1cc(-c2cc(F)c(=O)n(Cc3ccc4c(c3)OCO4)c2)nc(S(=O)(=O)CCC(OCc2ccccc2F)C2CCCCN2C)n1 (stereo not shown) [Compound 398] | 1 to 1000 nM |
| Cc1cc(-c2cc(F)c(=O)n(Cc3ccc4nnn(C)c4c3)c2)nc(S(=O)(=O)CCCN(c2ccccc2)C2CC2)n1 [Compound 381] | 1 to 1000 nM |
| Cc1cc(-c2cc(F)c(=O)n(Cc3ccc4c(c3)OCO4)c2)nc(S(=O)(=O)CCC(OCc2cncs2)c2ccccc2)n1 (stereo not shown) [Compound 406] | 1 to 1000 nM |
| Cc1cc(-c2cc(F)c(=O)n(Cc3ccc4c(c3)OCO4)c2)nc(S(=O)(=O)CCC(OCc2ccccc2F)c2cc3ccccc3n2C)n1 (stereo not shown) [Compound 387] | 1 to 1000 nM |
| Cc1cc(-c2cc(F)c(=O)n(Cc3ccc4c(c3)OCO4)c2)nc(S(=O)(=O)CCC(OCc2ccccc2F)C2CCCCC2)n1 (stereo not shown) [Compound 397] | 1 to 1000 nM |
| Cc1cc(-c2cc(F)c(=O)n(Cc3ccc4c(c3)OCCN4C)c2)nc(S(=O)(=O)CCC(OCc2ccccc2F)c2ccccc2)n1 (stereo not shown) [Compound 357] | 1 to 1000 nM |
| Cc1cc(-c2cc(F)c(=O)n(Cc3ccc4nnn(C)c4c3)c2)nc(S(=O)(=O)CCCN(c2ccccc2)C(C)(C)C)n1 [Compound 380] | 1 to 1000 nM |
| Cc1cc(-c2cc(F)c(=O)n(Cc3ccc4c(c3)N(C)CCN4C)c2)nc(S(=O)(=O)CCC(OCc2ccccc2F)c2ccccc2)n1 (stereo not shown) [Compound 347] | 1 to 1000 nM |
| Cc1cc(-c2cc(F)c(=O)n(Cc3ccc4c(c3)OCO4)c2)nc(S(=O)(=O)CCCC(=O)N(C(C)(C)C)C(C)(C)C)n1 [Compound 382] | 1 to 1000 nM |
| Cc1cc(-c2cc(F)c(=O)n(Cc3ccc4nnn(C)c4c3)c2)nc(S(=O)(=O)CCCC(=O)N(c2ccccc2)C2CCC2)n1 [Compound 373] | 1 to 1000 nM |

same assay, conditions: U2OS_Bim cells; estimated based on preliminary results; numbering of Tables 4a/4b; read-out: EC50

| SMILES | EC50 |
| --- | --- |
| CNc1ccc(Cn2cc(-c3cc(C(F)(F)F)nc([S+](C)[O-])n3)ccc2=O)cc1NC (stereo not shown) [Compound 233] | < 10000 nM |
| COc1ccc(Cn2cc(-c3cc(-c4ccco4)nc(S(C)(=O)=O)n3)ccc2=O)cc1OC [Compound 206] | < 10000 nM |
| COc1ccc(Cn2cc(-c3cc(C(F)(F)F)nc(S(=O)(=O)CN4CCCC4)n3)ccc2=O)cc1OC [Compound 194] | < 10000 nM |
| CS(=O)(=O)c1nc(-c2ccc(=O)n(Cc3ccc4ocnc4c3)c2)cc(C(F)(F)F)n1 [Compound 224] | < 10000 nM |
| C[S+]([O-])c1nc(-c2ccc(=O)n(Cc3ccc4c(c3)OCCO4)c2)cc(C(F)(F)F)n1 (stereo not shown) [Compound 231] | < 10000 nM |
| COc1ccc(Cn2cc(-c3cc(C(F)(F)F)nc([S+]([O-])Cc4ccncc4)n3)ccc2=O)cc1OC (stereo not shown) [Compound 191] | < 10000 nM |

The remaining lines, values ahead:

| EC50 | SMILES |
| --- | --- |
| < 10000 nM | CS(=O)(=O)c1nc(-c2ccc(=O)n(Cc3ccc4c(c3)NCCO4)c2)cc(C(F)(F)F)n1 [Compound 242] |
| < 10000 nM | CNc1cc(Cn2cc(-c3cc(C(F)(F)F)nc(S(C)(=O)=O)n3)ccc2=O)ccc1OC [Compound 238] |
| < 10000 nM | CS(=O)(=O)c1nc(-c2ccc(=O)n(Cc3ccc4cccnc4c3)c2)cc(C(F)(F)F)n1 [Compound 252] |
| < 10000 nM | CCc1ccc(Cn2cc(-c3cc(C(F)(F)F)nc(S(C)(=O)=O)n3)ccc2=O)cc1CC [Compound 266] |
| < 10000 nM | COc1cn(Cn2cc(-c3cc(C(F)(F)F)nc([S+](C)[O-])n3)ccc2=O)cc1OC (stereo not shown) [Compound 259] |
| < 10000 nM | C[S+]([O-])c1nc(-c2ccc(=O)n(Cc3ccc4nccnc4c3)c2)cc(C(F)(F)F)n1 (stereo not shown) [Compound 245] |

same assay, conditions: U2OS_Bim cells; means of duplicates; numbering of Tables 4a/4b; read-out: EC50

| SMILES | EC50 |
| --- | --- |
| CCCCCCNC(=O)CCCS(=O)(=O)c1nc(-c2ccc(=O)n(Cc3ccc(OC)c(OC)c3)c2)cc(C(F)F)n1 [Compound 183, 4-((4-(difluoromethyl)-6-(1-(3,4-dimethoxybenzyl)-6-oxo-1,6-dihydropyridin-3-yl)pyrimidin-2-yl)sulfonyl)-N-hexylbutanamide] | 1 to 1000 nM |
| Cc1ccc(-c2cc(C(F)(F)F)nc(S(C)(=O)=O)n2)cc1 [Compound 48, 2-(methylsulfonyl)-4-(p-tolyl)-6-(trifluoromethyl)pyrimidine] | < 100000 nM |
| COc1ccc(Cn2cc(-c3nc(S(C)(=O)=O)nc(C(F)(F)F)c3Cl)ccc2=O)cc1OC [Compound 162, 5-(5-chloro-2-(methylsulfonyl)-6-(trifluoromethyl)pyrimidin-4-yl)-1-(3,4-dimethoxybenzyl)pyridin-2 (1H)-one] | 1 to 1000 nM |
| COc1cc(Cn2cc(-c3cc(C(F)F)nc(SC)n3)ccc2=O)cc(F)c1OC [Compound 171, 5-(6-(difluoromethyl)-2-(methylthio)pyrimidin-4-yl)-1-(3-fluoro-4,5-dimethoxybenzyl)pyridin-2 (1H)-one] | 1 to 1000 nM |
| COc1ccc(Cn2cc(-c3cc(C(F)(F)F)nc(S(=O)(=O)CCCC(N)=O)n3)ccc2=O)cc1OC [Compound 158, 4-((4-(1-(3,4-dimethoxybenzyl)-6-oxo-1,6-dihydropyridin-3-yl)-6-(trifluoromethyl)pyrimidin-2-yl)sulfonyl)butanamide] | < 100000 nM |
| CS(=O)(=O)c1nc(-c2ccn(Cc3cccc(Cl)c3)c2)cc(C(F)(F)F)n1 [Compound 93, 4-(1-(3-chlorobenzyl)-1H-pyrrol-3-yl)-2-(methylsulfonyl)-6-(trifluoromethyl)pyrimidine] | < 100000 nM |
| COc1cccc(S(=O)(=O)c2nc(-c3ccc(=O)n(Cc4ccc(OC)c(OC)c4)c3)cc(C(F)F)n2)c1 [Compound 174, 5-(6-(difluoromethyl)-2-((3-methoxyphenyl)sulfonyl)pyrimidin-4-yl)-1-(3,4-dimethoxybenzyl)pyridin-2 (1H)-one] | 1 to 1000 nM |
| COc1ccc(Cn2cc(-c3cc(C(F)F)nc(S(C)(=O)=O)n3)ccc2=O)cc1F [Compound 167, 5-(6-(difluoromethyl)-2-(methylsulfonyl)pyrimidin-4-yl)-1-(3-fluoro-4-methoxybenzyl)pyridin-2 (11H)-one] | 1 to 1000 nM |
| CS(=O)(=O)c1nc(-c2ccc(=O)n(Cc3ccc4c(c3Br)OCO4)c2)cc(C(F)(F)F)n1 [Compound 137, 1-((4-bromobenzo[d][1,3]dioxol-5-yl)methyl)-5-(2-(methylsulfonyl)-6-(trifluoromethyl)pyrimidin-4-yl)pyridin-2 (1H)-one] | 1 to 1000 nM |
| CCCCCCCS(=O)(=O)c1nc(-c2ccc(=O)n(Cc3ccc(OC)c(OC)c3)c2)cc(C(F)(F)F)n1 [Compound 146, 1-(3,4-dimethoxybenzyl)-5-(2-(heptylsulfonyl)-6-(trifluoromethyl)pyrimidin-4-yl)pyridin-2 (1H)-one] | 1 to 1000 nM |
| COC(=O)c1ccccc1-c1cc(C(F)(F)F)nc([S+](C)[O-])n1 (stereo not shown) [Compound 59, methyl 2-(2-(methylsulfinyl)-6-(trifluoromethyl)pyrimidin-4-yl)benzoate] | 1000 to 10000 nM |
| CS(=O)(=O)c1nc(-c2ccc(=O)n(Cc3ccccc3Cl)c2)cc(C(F)(F)F)n1 [Compound 104, 1-(2-chlorobenzyl)-5-(2-(methylsulfonyl)-6-(trifluoromethyl)pyrimidin-4-yl)pyridin-2 (1H)-one] | 1 to 1000 nM |
| COc1ccc(Cn2cc(-c3cc(C(F)(F)F)nc(S(=O)(=O)CCCC(=O)N4CCOCC4)n3)ccc2=O)cc1OC [Compound 156, 1-(3,4-dimethoxybenzyl)-5-(2-((4-morpholino-4-oxobutyl)sulfonyl)-6-(trifluoromethyl)pyrimidin-4-yl)pyridin-2 (1H)-one] | 1 to 1000 nM |
| CNC(=O)CCC[S+]([O-])c1nc(-c2ccc(=O)n(Cc3ccc(OC)c(OC)c3)c2)cc(C(F)F)n1 (stereo not shown) [Compound 177, 4-((4-(difluoromethyl)-6-(1-(3,4-dimethoxybenzyl)-6-oxo-1,6-dihydropyridin-3-yl)pyrimidin-2-yl)sulfinyl)-N-methylbutanamide] | < 100000 nM |
| CS(=O)(=O)c1nc(-c2ccn(Cc3cccc(C#N)c3)c2)cc(C(F)(F)F)n1 [Compound 97, 3-((3-(2-(methylsulfonyl)-6-(trifluoromethyl)pyrimidin-4-yl)-1H-pyrrol-1-yl)methyl)benzonitrile] | < 100000 nM |
| CS(=O)(=O)c1nc(-c2ccc(=O)n(Cc3ccc(OC(F)(F)F)cc3)c2)cc(C(F)(F)F)n1 [Compound 117, 5-(2-(methylsulfonyl)-6-(trifluoromethyl)pyrimidin-4-yl)-1-(4-(trifluoromethoxy)benzyl)pyridin-2 (1H)-one] | 1000 to 20000 nM |

The remaining lines, values ahead:

| EC50 | SMILES |
| --- | --- |
| 1 to 1000 nM | COc1ccc(Cn2cc(-c3cc(C(F)(F)F)nc(S(=O)(=O)CCCC(=O)NC45CC6CC(CC(C6)C4)C5)n3)ccc2=O)cc1OC [Compound 289] |
| 1000 to 10000 nM | Cc1cc(-c2c[nH]c(=O)c(F)c2)nc(S(=O)(=O)CCC(OCc2ccccc2F)c2ccccc2)n1 (stereo not shown) [Compound 325, 3-fluoro-5-(2-(3-(2-fluorobenzyloxy)-3-phenylpropylsulfonyl)-6-methylpyrimidin-4-yl)pyridin-2 (1H)-one] |
| 1000 to 10000 nM | COc1ccc(Cn2cc(-c3cc(C)nc(S(C)(=O)=O)n3)cc(F)c2=O)cc1OC [Compound 324, 1-(3,4-dimethoxybenzyl)-3-fluoro-5-(6-methyl-2-(methylsulfonyl)pyrimidin-4-yl)pyridin-2 (1H)-one] |
| 1 to 1000 nM | Cc1cc(-c2cc(F)c(=O)n(Cc3ccc4c(cnn4C)c3)c2)nc(S(=O)(=O)CCC(OCc2ccccc2F)c2ccccc2)n1 (stereo not shown) [Compound 327, 3-fluoro-5-(2-(3-(2-fluorobenzyloxy)-3-phenylpropylsulfonyl)-6-methylpyrimidin-4-yl)-1-((1-methyl-1H-indazol-5-yl)methyl)pyridin-2 (1H)-one] |
